Data published in ChEMBL document CHEMBL3352578 (J Med Chem, 2014).
The source made the active and inactive calls. No cut-off for these calls is given here.

Assays:
[1] = Cmax in Sprague-Dawley rat at 10 mg/kg, po; format: ADME, organism-based; set-up: dose 10 mg/kg, route oral; conditions: in vivo
[2] = Oral bioavailability in Sprague-Dawley rat at 10 mg/kg; format: ADME, organism-based; conditions: in vivo
[3] = Ratio of drug level in brain to plasma in Swiss mouse at 10 mg/kg, sc after 1 hr; format: ADME, organism-based; set-up: dose 10 mg/kg, route subcutaneous; conditions: brain and plasma, read-out: BPR
Rattus norvegicus [4] = test: Positive allosteric modulation of mGlu2 receptor in po dosed Sprague-Dawley rat assessed effect on sleep-wake EEG paradigm after 20 hrs by electroencephalogram analysis; format: functional
Rattus norvegicus [5] = test: Positive allosteric modulation of mGlu2 receptor in Sprague-Dawley rat sleep-wake EEG paradigm model assessed as reduction in REM sleep at 3 mg/kg, po after 4 hrs by electroencephalogram analysis; format: functional, organism-based; set-up: dose 3 mg/kg
Rattus norvegicus [6] = test: Positive allosteric modulation of mGlu2 receptor in Sprague-Dawley rat sleep-wake EEG paradigm model assessed as effect on active wake stage at 3 mg/kg, po after 4 hrs by electroencephalogram analysis; format: functional, organism-based; set-up: dose 3 mg/kg
Rattus norvegicus [7] = test: Positive allosteric modulation of mGlu2 receptor in Sprague-Dawley rat sleep-wake EEG paradigm model assessed as effect on passive wake stage at 3 mg/kg, po after 4 hrs by electroencephalogram analysis; format: functional, organism-based; set-up: dose 3 mg/kg
Rattus norvegicus [8] = test: Positive allosteric modulation of mGlu2 receptor in Sprague-Dawley rat sleep-wake EEG paradigm model assessed as effect on intermediate state at 3 mg/kg, po after 4 hrs by electroencephalogram analysis; format: functional, organism-based; set-up: dose 3 mg/kg
Rattus norvegicus [9] = test: Positive allosteric modulation of mGlu2 receptor in Sprague-Dawley rat sleep-wake EEG paradigm model assessed as effect on light sleep stage at 3 mg/kg, po after 4 hrs by electroencephalogram analysis; format: functional, organism-based; set-up: dose 3 mg/kg
Rattus norvegicus [10] = test: Positive allosteric modulation of mGlu2 receptor in Sprague-Dawley rat sleep-wake EEG paradigm model assessed as effect on deep sleep stage at 3 mg/kg, po after 4 hrs by electroencephalogram analysis; format: functional, organism-based; set-up: dose 3 mg/kg
[11] = Dissociation constant, pKa of the compound; format: physicochemical
[12] = Lipophilicity, log P of the compound at pH 6.8; format: physicochemical; conditions: buffer
[13] = target: Metabotropic glutamate receptor 1 (Homo sapiens) (UniProt Q13255); test: Binding affinity to human mGlu1 receptor expressed in HEK293 cells assessed as calcium mobilization by [35S]GTPgamma binding assay; format: functional, cell-based
[14] = target: Metabotropic glutamate receptor 3 (Homo sapiens) (UniProt Q14832); test: Binding affinity to human mGlu3 receptor expressed in HEK293 cells assessed as calcium mobilization by [35S]GTPgamma binding assay; format: functional, cell-based
[15] = target: Metabotropic glutamate receptor 5 (Homo sapiens) (UniProt P41594); test: Binding affinity to human mGlu5 receptor expressed in HEK293 cells assessed as calcium mobilization by [35S]GTPgamma binding assay; format: functional, cell-based
[16] = target: Metabotropic glutamate receptor 4 (Homo sapiens) (UniProt Q14833); test: Binding affinity to human mGlu4 receptor expressed in […] L929 cells assessed as calcium mobilization by [35S]GTPgamma binding assay; format: functional, cell-based
[17] = target: Metabotropic glutamate receptor 6 (Rattus norvegicus) (UniProt P35349); test: Binding affinity to rat mGlu6 receptor expressed in CHO cells assessed as calcium mobilization by [35S]GTPgamma binding assay; format: functional, cell-based
[18] = Apparent permeability from apical to basolateral side in human Caco2 cells; format: ADME, cell-based; conditions: Caco-2
[19] = Apparent permeability from basolateral to apical side in human Caco2 cells; format: ADME, cell-based; conditions: Caco-2
[20] = Volume of distribution at steady state in Sprague-Dawley rat at 2.5 mg/kg, iv; format: ADME, organism-based; set-up: dose 2.5 mg/kg, route intravenous; conditions: in vivo, read-out: Vdss
[21] = Clearance in dog at 1 mg/kg, iv; format: ADME, organism-based, Canis lupus familiaris; set-up: dose 1 mg/kg, route intravenous; conditions: in vivo
[22] = Volume of distribution at steady state in dog at 1 mg/kg, iv; format: ADME, organism-based, Canis lupus familiaris; set-up: dose 1 mg/kg, route intravenous; conditions: in vivo, read-out: Vdss
[23] = Tmax in dog at 1 mg/kg, iv; format: ADME, organism-based, Canis lupus familiaris; set-up: dose 1 mg/kg, route intravenous; conditions: in vivo
[24] = Elimination half life in dog at 1 mg/kg, iv; format: ADME, organism-based, Canis lupus familiaris; set-up: dose 1 mg/kg, route intravenous; conditions: in vivo, read-out: beta t1/2 (converted)
[25] = AUC (0 to infinity) in dog at 2.5 mg/kg, po; format: ADME, organism-based, Canis lupus familiaris; set-up: time infinity, dose 2.5 mg/kg, route oral; conditions: plasma
[26] = Cmax in dog at 2.5 mg/kg, po; format: ADME, organism-based, Canis lupus familiaris; set-up: dose 2.5 mg/kg, route oral; conditions: in vivo
[27] = Oral bioavailability in dog at 2.5 mg/kg; format: ADME, organism-based, Canis lupus familiaris; conditions: in vivo
Rattus norvegicus [28] = test: Positive allosteric modulation of mGlu2 receptor in po dosed Sprague-Dawley rat assessed free plasma drug level causing effect on sleep-wake EEG paradigm after 20 hrs by electroencephalogram analysis; format: functional
[29] = Metabolic stability in human liver microsomes assessed as compound metabolized at 5 uM after 15 mins by MS/MS analysis in presence of NADPH; format: ADME; conditions: read-out: Drug metabolism
[30] = Metabolic stability in rat liver microsomes assessed as compound metabolized at 5 uM after 15 mins by MS/MS analysis in presence of NADPH; format: ADME; conditions: read-out: Drug metabolism
[31] = Clearance in Sprague-Dawley rat at 2.5 mg/kg, iv; format: ADME, organism-based; set-up: dose 2.5 mg/kg, route intravenous; conditions: in vivo
[32] = Elimination half life in Sprague-Dawley rat at 2.5 mg/kg, iv; format: ADME, organism-based; set-up: dose 2.5 mg/kg, route intravenous; conditions: in vivo, read-out: beta t1/2 (converted)
[33] = Tmax in Sprague-Dawley rat at 2.5 mg/kg, iv; format: ADME, organism-based; set-up: dose 2.5 mg/kg, route intravenous; conditions: in vivo
[34] = AUC (0 to infinity) in Sprague-Dawley rat at 10 mg/kg, po; format: ADME, organism-based; set-up: time infinity, dose 10 mg/kg, route oral; conditions: plasma

Sequence of Metabotropic glutamate receptor 4 (Homo sapiens) (Q14833 whole entry): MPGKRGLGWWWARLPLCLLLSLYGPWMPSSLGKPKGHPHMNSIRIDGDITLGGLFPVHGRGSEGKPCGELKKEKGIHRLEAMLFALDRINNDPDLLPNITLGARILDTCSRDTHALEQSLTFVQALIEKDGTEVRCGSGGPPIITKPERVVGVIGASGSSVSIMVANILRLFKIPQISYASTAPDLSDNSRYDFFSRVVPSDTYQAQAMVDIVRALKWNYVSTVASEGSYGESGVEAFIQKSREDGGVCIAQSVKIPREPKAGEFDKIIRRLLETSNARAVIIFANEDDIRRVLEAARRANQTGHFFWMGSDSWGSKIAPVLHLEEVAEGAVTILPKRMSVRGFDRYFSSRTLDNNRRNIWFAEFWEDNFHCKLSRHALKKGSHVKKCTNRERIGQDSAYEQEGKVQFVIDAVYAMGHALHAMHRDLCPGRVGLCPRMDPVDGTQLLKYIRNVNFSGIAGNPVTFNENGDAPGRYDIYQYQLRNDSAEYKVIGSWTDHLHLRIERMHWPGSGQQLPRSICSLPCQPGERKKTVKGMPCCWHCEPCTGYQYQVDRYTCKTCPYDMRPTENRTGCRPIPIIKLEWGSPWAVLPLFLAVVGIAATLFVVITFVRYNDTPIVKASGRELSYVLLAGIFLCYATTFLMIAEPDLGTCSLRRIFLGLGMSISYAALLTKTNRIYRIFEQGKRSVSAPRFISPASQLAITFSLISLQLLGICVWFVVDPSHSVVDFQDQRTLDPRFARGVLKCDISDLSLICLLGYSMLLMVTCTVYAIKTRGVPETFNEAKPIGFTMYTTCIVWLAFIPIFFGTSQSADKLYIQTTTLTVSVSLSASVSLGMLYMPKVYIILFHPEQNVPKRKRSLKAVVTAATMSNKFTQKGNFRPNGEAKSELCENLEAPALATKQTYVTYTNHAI
Sequence of Metabotropic glutamate receptor 1 (Homo sapiens) (Q13255 19-1194 limits assumed): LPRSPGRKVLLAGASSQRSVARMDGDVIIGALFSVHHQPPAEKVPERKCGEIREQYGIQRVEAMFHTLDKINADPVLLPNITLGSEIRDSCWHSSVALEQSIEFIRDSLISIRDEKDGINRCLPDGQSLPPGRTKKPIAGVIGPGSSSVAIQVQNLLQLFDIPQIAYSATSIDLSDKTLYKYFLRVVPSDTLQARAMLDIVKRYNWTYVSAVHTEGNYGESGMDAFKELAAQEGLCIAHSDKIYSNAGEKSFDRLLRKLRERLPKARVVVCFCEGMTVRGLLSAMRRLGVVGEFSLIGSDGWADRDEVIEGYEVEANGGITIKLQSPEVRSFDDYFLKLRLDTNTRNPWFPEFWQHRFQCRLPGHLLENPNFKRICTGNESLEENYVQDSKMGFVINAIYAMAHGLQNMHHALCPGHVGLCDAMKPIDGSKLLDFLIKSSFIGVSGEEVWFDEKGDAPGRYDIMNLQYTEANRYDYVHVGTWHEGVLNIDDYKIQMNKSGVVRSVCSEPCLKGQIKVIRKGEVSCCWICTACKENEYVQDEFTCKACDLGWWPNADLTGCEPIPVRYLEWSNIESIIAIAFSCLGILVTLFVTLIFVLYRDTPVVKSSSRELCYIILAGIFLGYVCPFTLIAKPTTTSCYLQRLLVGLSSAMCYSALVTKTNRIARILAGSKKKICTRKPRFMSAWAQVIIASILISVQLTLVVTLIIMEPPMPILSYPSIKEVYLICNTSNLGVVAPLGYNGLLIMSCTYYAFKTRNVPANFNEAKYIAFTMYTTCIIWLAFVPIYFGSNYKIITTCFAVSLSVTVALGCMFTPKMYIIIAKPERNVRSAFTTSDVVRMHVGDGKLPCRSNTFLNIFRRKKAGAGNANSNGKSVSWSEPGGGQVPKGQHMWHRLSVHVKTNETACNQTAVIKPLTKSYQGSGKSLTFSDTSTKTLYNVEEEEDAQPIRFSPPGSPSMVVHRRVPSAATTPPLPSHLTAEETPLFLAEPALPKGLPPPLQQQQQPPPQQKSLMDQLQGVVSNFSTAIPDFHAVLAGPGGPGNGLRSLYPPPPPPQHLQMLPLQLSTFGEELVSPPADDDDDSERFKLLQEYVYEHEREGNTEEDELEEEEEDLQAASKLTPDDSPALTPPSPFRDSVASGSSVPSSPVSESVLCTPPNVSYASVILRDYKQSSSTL
Sequence of Metabotropic glutamate receptor 5 (Homo sapiens) (P41594 21-1212 limits assumed): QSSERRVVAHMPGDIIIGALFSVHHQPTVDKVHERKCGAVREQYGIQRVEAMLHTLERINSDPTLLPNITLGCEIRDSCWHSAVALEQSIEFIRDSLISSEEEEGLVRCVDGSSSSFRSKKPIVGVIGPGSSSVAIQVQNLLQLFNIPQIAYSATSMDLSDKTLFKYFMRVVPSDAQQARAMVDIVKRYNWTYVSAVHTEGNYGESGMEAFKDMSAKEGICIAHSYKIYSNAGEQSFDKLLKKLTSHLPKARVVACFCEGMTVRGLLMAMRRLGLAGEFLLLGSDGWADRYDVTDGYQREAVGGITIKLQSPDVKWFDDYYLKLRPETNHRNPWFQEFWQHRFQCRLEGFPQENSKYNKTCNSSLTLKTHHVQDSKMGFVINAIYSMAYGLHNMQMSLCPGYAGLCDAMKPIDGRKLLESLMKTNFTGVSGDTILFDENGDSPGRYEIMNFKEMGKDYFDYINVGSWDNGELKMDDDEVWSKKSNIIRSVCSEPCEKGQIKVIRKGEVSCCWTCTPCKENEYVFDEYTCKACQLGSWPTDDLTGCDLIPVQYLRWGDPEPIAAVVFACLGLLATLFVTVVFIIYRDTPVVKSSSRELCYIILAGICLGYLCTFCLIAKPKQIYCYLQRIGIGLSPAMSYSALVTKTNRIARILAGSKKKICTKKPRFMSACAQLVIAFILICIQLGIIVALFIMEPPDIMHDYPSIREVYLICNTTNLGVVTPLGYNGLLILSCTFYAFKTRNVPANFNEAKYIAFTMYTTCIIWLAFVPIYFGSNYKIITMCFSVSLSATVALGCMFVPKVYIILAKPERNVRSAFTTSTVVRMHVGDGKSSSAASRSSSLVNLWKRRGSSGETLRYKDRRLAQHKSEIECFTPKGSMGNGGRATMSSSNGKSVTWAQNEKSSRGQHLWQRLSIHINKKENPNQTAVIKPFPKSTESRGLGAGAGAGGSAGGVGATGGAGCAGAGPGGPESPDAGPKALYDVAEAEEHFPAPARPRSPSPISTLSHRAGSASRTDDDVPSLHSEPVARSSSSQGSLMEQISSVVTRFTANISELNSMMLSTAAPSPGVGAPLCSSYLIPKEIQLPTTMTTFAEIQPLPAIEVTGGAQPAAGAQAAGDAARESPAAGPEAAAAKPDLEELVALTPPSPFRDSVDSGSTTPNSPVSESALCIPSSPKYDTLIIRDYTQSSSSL
Sequence of Metabotropic glutamate receptor 3 (Homo sapiens) (Q14832 23-879 limits assumed): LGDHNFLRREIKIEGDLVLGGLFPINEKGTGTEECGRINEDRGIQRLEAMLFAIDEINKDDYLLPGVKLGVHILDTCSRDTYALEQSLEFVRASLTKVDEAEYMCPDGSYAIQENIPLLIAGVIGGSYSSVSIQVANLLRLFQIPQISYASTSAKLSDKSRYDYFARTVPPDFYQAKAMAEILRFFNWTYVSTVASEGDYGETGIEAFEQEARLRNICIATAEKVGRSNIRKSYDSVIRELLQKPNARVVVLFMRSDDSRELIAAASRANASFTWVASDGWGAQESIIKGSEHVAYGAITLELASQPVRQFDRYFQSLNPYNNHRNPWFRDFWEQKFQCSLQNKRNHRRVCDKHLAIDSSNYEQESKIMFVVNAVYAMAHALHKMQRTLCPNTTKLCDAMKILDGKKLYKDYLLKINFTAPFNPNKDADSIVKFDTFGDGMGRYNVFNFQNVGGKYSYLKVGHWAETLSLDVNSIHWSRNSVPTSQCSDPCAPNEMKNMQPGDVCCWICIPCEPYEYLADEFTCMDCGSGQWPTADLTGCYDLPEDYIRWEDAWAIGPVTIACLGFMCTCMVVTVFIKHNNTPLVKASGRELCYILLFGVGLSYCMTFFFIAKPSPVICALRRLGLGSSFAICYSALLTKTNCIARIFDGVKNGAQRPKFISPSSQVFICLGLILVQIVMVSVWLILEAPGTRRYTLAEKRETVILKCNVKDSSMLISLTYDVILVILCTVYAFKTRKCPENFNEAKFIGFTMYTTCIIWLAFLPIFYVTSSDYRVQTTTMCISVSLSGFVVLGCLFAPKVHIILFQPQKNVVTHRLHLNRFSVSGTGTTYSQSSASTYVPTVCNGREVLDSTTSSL
Sequence of Metabotropic glutamate receptor 6 (Rattus norvegicus) (P35349 whole entry): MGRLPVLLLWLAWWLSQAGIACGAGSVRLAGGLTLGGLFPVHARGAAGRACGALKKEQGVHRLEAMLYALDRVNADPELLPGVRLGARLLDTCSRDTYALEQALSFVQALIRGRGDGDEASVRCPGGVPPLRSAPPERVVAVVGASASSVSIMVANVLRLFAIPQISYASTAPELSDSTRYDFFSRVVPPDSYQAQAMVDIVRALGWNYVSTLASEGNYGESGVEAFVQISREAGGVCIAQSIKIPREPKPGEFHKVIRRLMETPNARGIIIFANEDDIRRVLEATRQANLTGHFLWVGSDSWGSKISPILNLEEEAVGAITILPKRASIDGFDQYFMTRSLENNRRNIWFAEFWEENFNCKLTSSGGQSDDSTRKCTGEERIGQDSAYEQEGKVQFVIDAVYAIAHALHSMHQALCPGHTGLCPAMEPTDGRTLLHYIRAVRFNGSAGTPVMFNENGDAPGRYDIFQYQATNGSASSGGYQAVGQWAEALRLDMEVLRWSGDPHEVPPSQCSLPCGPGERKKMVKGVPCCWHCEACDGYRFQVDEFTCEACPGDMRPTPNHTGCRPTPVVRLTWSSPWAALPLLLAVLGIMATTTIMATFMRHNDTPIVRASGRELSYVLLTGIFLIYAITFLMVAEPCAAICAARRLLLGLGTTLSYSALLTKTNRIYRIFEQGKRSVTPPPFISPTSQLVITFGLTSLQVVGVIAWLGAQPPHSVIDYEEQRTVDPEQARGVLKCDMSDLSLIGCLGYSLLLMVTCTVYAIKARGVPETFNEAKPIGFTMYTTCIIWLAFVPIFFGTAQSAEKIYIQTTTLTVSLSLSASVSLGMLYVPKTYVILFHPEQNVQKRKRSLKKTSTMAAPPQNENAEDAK

Work on `CCCCn1ccc(N2CCC(c3ccccc3)CC2)c(Cl)c1=O` [JNJ-40411813] yielded a Cmax [1] of 938 ng/mL, a bioavailability [2] of 31% and a Kp at 1 h [3] of 1. For the same molecule, the MEC (Rattus norvegicus [4]) was 281 ng/mL, the minimal effective dose (Rattus norvegicus [4]; Rattus norvegicus, Sprague-Dawley, po, 20 h, read-out: MED) was 3 mg/kg and the Activity (Rattus norvegicus [5]) was “Active”. The Activity (Rattus norvegicus [6]) was “inactive”, the Activity (Rattus norvegicus [7]) was “inactive” and the Activity (Rattus norvegicus [8]) was “inactive”. The Activity (Rattus norvegicus [9]) was “inactive”, the Activity (Rattus norvegicus [10]) was “inactive” and the pKa [11] was under 2. The logD [12] was 4.6, the Activity [13] was “inactive” and the Activity [14] was “inactive”. For the same molecule, the Activity [15] was “inactive”, the Activity [16] was “inactive” and the Activity [17] was “inactive”. The Papp A→B [18] was 12 ×10⁻⁶ cm/s, the Papp B→A [19] was 6 ×10⁻⁶ cm/s and the Vd [20] was 2.3 L/kg. It also gave a clearance [21] of 23 mL/min/kg, a Vd [22] of 1.8 L/kg and a Tmax [23] of 0.5 h. It also gave a half-life [24] of 3.7 h, an AUC(0-inf) [25] of 743 ng·h/mL and a Cmax [26] of 373 ng/mL. It also gave a bioavailability [27] of 20%, a fMEC (Rattus norvegicus [28]) of 0.9 ng/mL and a metabolised at 0.25 h, 5 µM [29] of 23%. For the same molecule, the metabolised at 0.25 h, 5 µM [30] was 53%, the clearance [31] was 23 mL/min/kg and the half-life [32] was 2.3 h. For the same molecule, the Tmax [33] was 0.5 h and the AUC(0-inf) [34] was 2250 ng·h/mL.
